Counter-ions that a name gives are not always drawn.
What follows are molecules tested against T1, HMG-CoA reductase (Rattus norvegicus, UniProt P51639) (assay: in-vitro HMG-CoA reductase enzyme assay (liver microsomes, [14C] HMG-CoA)). Conditions: 2.5 μM [14C] HMG-CoA as substrate, 37° C. for 15 minutes; compounds preincubated with liver microsomes at 37° C. for 30 minutes.
T1 construct: were preincubated with liver microsomes at 37° C. for 30 minutes; from tissue
T1 sequence (P51639 1-887): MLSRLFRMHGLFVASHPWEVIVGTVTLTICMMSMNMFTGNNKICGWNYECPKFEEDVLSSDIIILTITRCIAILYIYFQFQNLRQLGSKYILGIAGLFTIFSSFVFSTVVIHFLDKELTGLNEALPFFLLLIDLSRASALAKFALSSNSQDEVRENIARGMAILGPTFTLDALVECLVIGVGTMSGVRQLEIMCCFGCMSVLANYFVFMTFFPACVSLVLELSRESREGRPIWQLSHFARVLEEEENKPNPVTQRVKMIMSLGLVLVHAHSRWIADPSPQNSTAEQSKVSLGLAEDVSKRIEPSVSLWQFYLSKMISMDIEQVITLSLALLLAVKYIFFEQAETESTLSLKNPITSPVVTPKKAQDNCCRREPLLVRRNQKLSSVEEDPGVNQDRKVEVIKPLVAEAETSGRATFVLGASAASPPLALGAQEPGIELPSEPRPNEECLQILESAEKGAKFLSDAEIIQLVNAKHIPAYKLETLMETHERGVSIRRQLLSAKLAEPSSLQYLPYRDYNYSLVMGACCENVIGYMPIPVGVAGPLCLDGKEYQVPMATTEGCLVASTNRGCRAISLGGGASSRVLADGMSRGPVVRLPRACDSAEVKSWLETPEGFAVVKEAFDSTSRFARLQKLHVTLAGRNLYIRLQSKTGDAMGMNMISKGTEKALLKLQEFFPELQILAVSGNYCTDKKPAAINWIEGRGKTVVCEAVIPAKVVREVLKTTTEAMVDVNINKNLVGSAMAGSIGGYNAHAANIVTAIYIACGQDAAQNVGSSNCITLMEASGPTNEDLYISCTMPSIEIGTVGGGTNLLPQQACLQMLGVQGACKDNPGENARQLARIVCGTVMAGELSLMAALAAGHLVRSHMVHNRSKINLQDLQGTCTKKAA
Assay type: biochemical
Procedure: HMG-CoA reductase is a rate-limiting enzyme in the cholesterol biosynthesis, catalyzing the following reaction.
[^14C] HMG-CoA+2NADPH+2H^+→[^14C] mevanolate+CoA+2NADP^+ microsomes,
HMG-CoA as a substrate. The reaction was carried out in the presence of 100 mM KH2PO4, 20 mM G-6-P, 2.5 mM NADPH, 10 mM EDTA, 5 mM DTT and […] G-6-P dehydrogenase, at 37° C. for 15 minutes and quantitating [^14C] mevalonate as an end product.

Molecule	IC50
CC(C)c1c(C(=O)Nc2ccccc2F)c(-c2ccccc2)c(-c2ccc(F)cc2)n1CC[C@@H](O)C[C@@H](O)CC(=O)O [Compound No. 2, (3R,5R)-7-[2-(4-Fluorophenyl)-5-isopropyl-3-phenyl-4-[(2-fluorophenylamino)carbonyl]-pyrrol-1-yl]-3,5-dihydroxy-1-heptanoic acid calcium salt]	0.0177 nM
CC(C)c1c(C(=O)Nc2ccccc2)c(-c2ccccc2)c(-c2ccc(F)c(F)c2)n1CC[C@@H](O)C[C@@H](O)CC(=O)O [Compound No. 13, (3R,5R)-7-[2-(3,4-Difluorophenyl)-5-isopropyl-3-phenyl-4-[(phenylamino)carbonyl]-pyrrol-1-yl]-3,5-dihydroxy-1-heptanoic acid calcium salt]	0.00625 nM
(3R,5R)-7-[2,3-Di-(4-fluorophenyl)-5-isopropyl-4-[(phenylamino) carbonyl]-pyrrol-1-yl]-3,5-dihydroxy-1-heptanoic acid calcium salt [Compound No. 16]	0.0345 nM
(3R,5R)-7-[2-(4-Fluorophenyl)-5-isopropyl-3-(2,4-difluorophenyl)-4-[(phenylamino)carbonyl]-1H-pyrrol-3,5-dihydroxy-1-heptanoic acid calcium salt [Compound No. 15]	0.0122 nM
(3R,5R)-7-[2-(4-Fluorophenyl)-5-isopropyl-3-phenyl-4-[(3-fluorophen ylamino)carbonyl]-pyrrol-1-yl]-3,5-dihydroxy 1-heptanoic acid calcium salt [Compound No. 3]	0.0239 nM
(3R,5R)-7-[2-(4-Fluorophenyl)-5-isopropyl-3-phenyl-4-[(4-fluorophenylamino)carbonyl]-pyrrol-1-yl]-3,5-dihydroxy-1-heptanoic acid calcium salt [Compound No. 4]	0.0098 nM
(3R,5R)-7-[2-(4-Fluorophenyl)-5-isopropyl-3-phenyl-4-[(pyridin-2-yl-amino)carbonyl]pyrrol-1-yl]-3,5-dihydroxy-1-heptanoic acid calcium salt [Compound No. 5]	0.0195 nM

Other lines, results leading:

IC50	Molecule
0.0123 nM	CC(C)c1c(C(=O)Nc2ccccc2)c(-c2ccccc2)c(-c2ccc(F)cc2F)n1CC[C@@H](O)C[C@@H](O)CC(=O)O [Compound No. 12, (3R,5R)-7-[2-(2,4-Difluorophenyl)-5-isopropyl-3-phenyl-4-[(phenylamino)carbonyl]-pyrrol-1-yl]-3,5-dihydroxy-1-heptanoic acid calcium salt]
0.034 nM	Cc1ccc(-c2c(C(=O)Nc3ccccc3)c(C(C)C)n(CC[C@@H](O)C[C@@H](O)CC(=O)O)c2-c2ccc(F)cc2)cc1 [Compound No. 17, (3R,5R)-7-[2-(4-Fluorophenyl)-5-isopropyl-3-(4-methylphenyl)-4-[(phenylamino)carbonyl]-pyrrol-1-yl]-3,5-dihydroxy-1-heptanoic acid calcium salt]
0.0126 nM	CC(C)c1c(C(=O)Nc2ccccc2)c(-c2ccc(C(F)(F)F)cc2)c(-c2ccc(F)cc2)n1CC[C@@H](O)C[C@@H](O)CC(=O)O [Compound No. 18, (3R,5R)-7-[2-(4-Fluorophenyl)-5-isopropyl-3-(4-trifluoromethylphenyl)-4-[(phenylamino)carbonyl]-pyrrol-1-yl]-3,5-dihydroxy-1-heptanoic acid calcium salt]
0.0124 nM	O=C(O)C[C@H](O)C[C@H](O)CCn1c(-c2ccc(F)cc2)c(-c2ccccc2)c(C(=O)Nc2ccccc2)c1C1CC1 [Compound No. 19, (3R,5R)-7-[2-(4-Fluorophenyl)-5-cyclopropyl-3-phenyl-4-[(phenylamino)carbonyl]-pyrrol-1-yl]-3,5-dihydroxy-1-heptanoic acid calcium salt]
0.0385 nM	CC(C)c1nc(N(C)S(C)(=O)=O)nc(-c2ccc(F)cc2)c1/C=C/[C@@H](O)C[C@@H](O)CC(=O)O [Rosuvastatin, reference compound]

Source: patent publication US20040102511A1, “Substituted pyrrole derivatives” (priority 2002, published 2004)
